PubChem BioAssay (NCI)
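Five concentrations, 48 hours, 96-well plates. At the TGI there is no net growth.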

What was measured:
Assay in all cases: growth of human tumour cells (NCI), 48 h
A498 renal = system: A498 renal
ACHN renal = system: ACHN renal
DU-145 prostate = system: DU-145 prostate
HCT-15 colon = system: HCT-15 colon
IGROV1 ovarian = system: IGROV1 ovarian
KM12 colon = system: KM12 colon
MALME-3M melanoma = system: MALME-3M melanoma
NCI-H23 lung = system: NCI-H23 lung
OVCAR-3 ovarian = system: OVCAR-3 ovarian
SF-268 CNS = system: SF-268 CNS

Row | SMILES | TGI (A498 renal) [µM] | TGI (ACHN renal) [µM] | TGI (DU-145 prostate) [µM] | TGI (HCT-15 colon) [µM] | TGI (IGROV1 ovarian) [µM] | TGI (KM12 colon) [µM] | TGI (MALME-3M melanoma) [µM] | TGI (NCI-H23 lung) [µM] | TGI (OVCAR-3 ovarian) [µM] | TGI (SF-268 CNS) [µM]
1 | Cc1ccc(C2=CC(=O)/C(=C\C(=O)c3ccc(Cl)cc3)O2)cc1 | 71.8 | 17.3 | 87.1 | 35.3 | 34.2 | 42.9 | 32.7 | 55.3 | 18.4 | 36.3
2 | Oc1[nH]c2ccccc2c1N=NC(=S)Nc1ccc(Cl)cc1 | 63 | > 100 | > 100 | > 100 | > 100 | > 100 | 54.7 | > 100 | > 100 | > 100
3 | S=c1cc(-c2ccc3c(c2)OCO3)s[nH]1 | > 100 | > 100 | > 100 | > 100 | > 100 | > 100 | > 100 | > 100 | > 100 | > 100
4 | Cc1ccc(/C=C2\Cc3c(C)cc(C)cc3C2=O)c(C(=O)O)c1 | 84.1 | > 100 | > 100 | > 100 | > 100 | > 100 | > 100 | > 100 | 94 | > 100
5 | O=c1[nH]nc(Cc2ccccc2)n1/N=C/c1ccncc1 | > 100 | > 100 | > 100 | > 100 | > 100 | > 100 | > 100 | > 100 | > 100 | > 100
6 | CNC(=O)CCCNC(=O)CCCC(=O)N(C)C | > 100 | > 100 | > 100 | > 100 | > 100 | > 100 | > 100 | > 100 | > 100 | > 100
7 | N#Cc1c(-c2ccccc2)cc(-c2ccc(Cl)cc2)[nH]c1=S | 63.5 | > 100 | > 100 | > 100 | 89.8 | > 100 | > 100 | 38.2 | > 100 | > 100
8 | CCCCn1c(-c2ccc([N+](=O)[O-])cc2)cs/c1=N/N=C1\C(=O)Nc2ccc(Br)cc21 | 34.3 | 31.5 | 30 | > 100 | > 100 | 38.2 | > 100 | 33.1 | 39.8 | > 100
9 | N#Cc1nc(C2CCC2)oc1N | > 100 | > 100 | > 100 | > 100 | > 100 | > 100 | > 100 | > 100 | > 100 | > 100
10 | C\C(=N/N=C1/C(=C\N(C)C)C(=O)NC(=O)N1C)c1ccc(Cl)cc1 | > 100 | > 100 | > 100 | > 100 | > 100 | > 100 | > 100 | > 100 | > 100 | > 100
11 | COc1cc2ccc1OCc1cccc(n1)COc1ccc(cc1OC)C=Nc1ccc(cc1)N=C2 | > 100 | > 100 | > 100 | > 100 | > 100 | > 100 | > 100 | > 100 | > 100 | > 100
12 | COc1ccc(CC2COc3cc(O)cc(O)c3C2=O)cc1O (stereo not given) | > 100 | > 100 | 68.1 | > 100 | > 100 | 43.9 | > 100 | > 100 | 6.87 | > 100
